Here are results for one molecule from publication PMC6264460, “Lead Generation and Optimization Based on Protein-Ligand Complementarity” (Molecules, 2010).

The test concerns the target T1, JNK3 (Homo sapiens, UniProt P53779).
T1 construct: made in house
Briefly: Inhibition of ATP hydrolysis by JNK3 (coupled NADH oxidation assay). Conditions: ATP hydrolysis by JNK3, 100 nM JNK3, pH 7.6, 1% DMSO. The class given is biochemical. The text has this:
To measure the inhibitory activity of the Z1208, we used the following assay system: adenosine triphosphate (ATP), phosphoenolpyruvate (PEP), nicotinamide adenine dinucleotide (NADH), and a solution mixture of pyruvate kinase and L-lactate dehydrogenase (PK-L-LDH) were purchased from Roche Diagnostics. Other reagents were purchased from Sigma-Aldrich. JNK3 was expressed and purified by the method of Xie et al.. After a purification step, JNK3 was activated by GST-fused MKK7 and further purified against a glutathione-fixed column. […] The conversion of NADH was measured by kinetic monitoring with SpectraMax 190 (Molecular Devices).

Each structure is given as a SMILES string.

T1 sequence (P53779 40-402 limits assumed): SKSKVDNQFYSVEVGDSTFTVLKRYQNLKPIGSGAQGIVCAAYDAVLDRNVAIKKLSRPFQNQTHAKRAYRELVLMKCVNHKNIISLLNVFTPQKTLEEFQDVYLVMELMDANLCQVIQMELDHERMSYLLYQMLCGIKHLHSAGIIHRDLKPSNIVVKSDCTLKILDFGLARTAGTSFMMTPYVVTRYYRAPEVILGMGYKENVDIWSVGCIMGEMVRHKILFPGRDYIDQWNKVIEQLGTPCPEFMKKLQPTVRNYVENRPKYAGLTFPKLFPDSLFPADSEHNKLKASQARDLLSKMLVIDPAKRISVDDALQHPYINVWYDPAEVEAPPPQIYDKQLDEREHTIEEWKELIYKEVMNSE

Broadly, the IC50 is the concentration that inhibits the measured activity by half. Lower therefore signals greater potency in that assay. In turn, `CN1c2c[nH]nc2C(O)=C(C(=O)Nc2ccc(Cl)c(Cl)c2)S1(=O)=O` [Z1208-8] yielded an IC50 of 62.9 µM.
